The source of these data is the supplement of paper PMC10307832.

Holding throughout (assay): relative viability (nuclei count vs DMSO), 5 days (fraction); higher = more cells survive
Compound in the assay “Zosuquidar + Phenformin”: O[C@@H](COc1cccc2ncccc12)CN1CCN([C@@H]2c3ccccc3[C@@H]3[C@H](c4ccccc42)C3(F)F)CC1 [Zosuquidar] + N=C(N)NC(=N)NCCc1ccccc1 [Phenformin] (partner 250 µM)
In outline: (§1)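 The day after seeding in 1536-well plates, lung cancer cell lines were treated by pin tool with a single drug, or with a fixed anchor-drug dose together with five library-drug doses (not always all listed) in √10 steps. After 5 days, a combined fix-and-stain solution (final 0.05% Triton X-100, 1% formaldehyde, 1 ug/ml Hoechst) was added. Nuclei counted on 4× images gave relative viability as treated counts over vehicle counts, reported as the median of duplicate plates.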

Compound in the assay “Kobe2602 + Pictilisib”: C1=CC(=CC=C1NC(=S)NNC2=C(C=C(C=C2[N+](=O)[O-])C(F)(F)F)[N+](=O)[O-])F [Kobe2602] + CS(=O)(=O)N1CCN(Cc2cc3nc(-c4cccc5[nH]ncc45)nc(N4CCOCC4)c3s2)CC1 [Pictilisib] (partner 1 µM)
In outline: as §1

Compound in the assay “Cabozantinib + Alpelisib”: COc1cc2nccc(Oc3ccc(NC(=O)C4(C(=O)Nc5ccc(F)cc5)CC4)cc3)c2cc1OC [Cabozantinib] + Cc1nc(NC(=O)N2CCC[C@H]2C(N)=O)sc1-c1ccnc(C(C)(C)C(F)(F)F)c1 [Alpelisib] (partner 2 µM)
In a few lines: as §1

Compound in the assay “Kobe2602 + Trametinib”: C1=CC(=CC=C1NC(=S)NNC2=C(C=C(C=C2[N+](=O)[O-])C(F)(F)F)[N+](=O)[O-])F [Kobe2602] + CC(=O)Nc1cccc(-n2c(=O)n(C3CC3)c(=O)c3c(Nc4ccc(I)cc4F)n(C)c(=O)c(C)c32)c1 [Trametinib] (partner 0.02 µM)
In outline: as §1

Consider LOU-NH91, for which the relative viability came to 0.62 in the assay with Zosuquidar + Phenformin (first compound 0.01 µM); 0.702 with Zosuquidar + Phenformin (first compound 0.03162 µM); 0.768 with Zosuquidar + Phenformin (first compound 0.3162 µM); 0.692 with Zosuquidar + Phenformin (first compound 1 µM); 0.553 with Kobe2602 + Pictilisib (first compound 0.2 µM); 0.49 with Kobe2602 + Pictilisib (first compound 0.6325 µM). Moreover, the relative viability with Kobe2602 + Pictilisib (first compound 2 µM) turned out to be 0.468; in the assay with Kobe2602 + Pictilisib (first compound 6.325 µM), 0.528; with Kobe2602 + Pictilisib (first compound 20 µM), 0.566; with Cabozantinib + Alpelisib (first compound 0.02 µM), 0.721; with Cabozantinib + Alpelisib (first compound 0.06325 µM), 0.793; with Cabozantinib + Alpelisib (first compound 0.2 µM), 0.505. For the same cell line, the relative viability with Cabozantinib + Alpelisib (first compound 0.6325 µM) stood at 0.742; with Cabozantinib + Alpelisib (first compound 2 µM) it was 0.713; with Kobe2602 + Trametinib (first compound 0.2 µM), 0.763; with Kobe2602 + Trametinib (first compound 0.6325 µM), 0.793; in the assay with Kobe2602 + Trametinib (first compound 2 µM) it was 0.739; in the assay with Kobe2602 + Trametinib (first compound 6.325 µM), 0.793. For the same cell line, the relative viability in the assay with Kobe2602 + Trametinib (first compound 20 µM) amounted to 0.821.
In the case of LU99A, the relative viability with Zosuquidar + Phenformin (first compound 0.01 µM) was 0.859; in the assay with Zosuquidar + Phenformin (first compound 0.03162 µM) it was 0.793; with Zosuquidar + Phenformin (first compound 0.1 µM), 0.834; with Zosuquidar + Phenformin (first compound 0.3162 µM), 0.971; with Zosuquidar + Phenformin (first compound 1 µM) it was 0.808; in the assay with Kobe2602 + Pictilisib (first compound 0.2 µM), 0.317. Moreover, the relative viability with Kobe2602 + Pictilisib (first compound 0.6325 µM) was found to be 0.365; with Kobe2602 + Pictilisib (first compound 2 µM), 0.312; with Kobe2602 + Pictilisib (first compound 6.325 µM) it was 0.383; in the assay with Kobe2602 + Pictilisib (first compound 20 µM), 0.359; in the assay with Cabozantinib + Alpelisib (first compound 0.02 µM), 0.469; with Cabozantinib + Alpelisib (first compound 0.06325 µM), 0.495. Moreover, the relative viability was determined as 0.429 with Cabozantinib + Alpelisib (first compound 0.2 µM); 0.502 with Cabozantinib + Alpelisib (first compound 0.6325 µM); 0.543 with Cabozantinib + Alpelisib (first compound 2 µM); 0.546 with Kobe2602 + Trametinib (first compound 0.2 µM); 0.647 with Kobe2602 + Trametinib (first compound 0.6325 µM); 0.571 with Kobe2602 + Trametinib (first compound 2 µM). Moreover, the values for the relative viability in the assay with Kobe2602 + Trametinib (first compound 6.325 µM) and in the assay with Kobe2602 + Trametinib (first compound 20 µM) were 0.534 and 0.593, respectively.
Regarding LXF-289, the relative viability was 0.52 in the assay with Zosuquidar + Phenformin (first compound 0.01 µM); 0.502 with Zosuquidar + Phenformin (first compound 0.03162 µM); 0.484 with Zosuquidar + Phenformin (first compound 0.1 µM); 0.543 with Zosuquidar + Phenformin (first compound 0.3162 µM); 0.5 with Zosuquidar + Phenformin (first compound 1 µM); 0.82 with Kobe2602 + Pictilisib (first compound 0.2 µM). For the same cell line, the relative viability worked out at 0.814 with Kobe2602 + Pictilisib (first compound 0.6325 µM); 0.693 with Kobe2602 + Pictilisib (first compound 2 µM); 0.862 with Kobe2602 + Pictilisib (first compound 6.325 µM); 0.799 with Kobe2602 + Pictilisib (first compound 20 µM); 1.11 in the assay with Cabozantinib + Alpelisib (first compound 0.02 µM); 1.09 with Cabozantinib + Alpelisib (first compound 0.06325 µM). Also, the relative viability in the assay with Cabozantinib + Alpelisib (first compound 0.2 µM) is 1.01; with Cabozantinib + Alpelisib (first compound 0.6325 µM), 1; in the assay with Cabozantinib + Alpelisib (first compound 2 µM), 0.997; with Kobe2602 + Trametinib (first compound 0.2 µM) it was 0.665; with Kobe2602 + Trametinib (first compound 0.6325 µM), 0.658; in the assay with Kobe2602 + Trametinib (first compound 2 µM), 0.663. The figures for the relative viability in the assay with Kobe2602 + Trametinib (first compound 6.325 µM) and in the assay with Kobe2602 + Trametinib (first compound 20 µM) were 0.691 and 0.62, respectively.
Regarding NCI-H522, the relative viability was found to be 0.654 with Zosuquidar + Phenformin (first compound 0.01 µM); 0.606 in the assay with Zosuquidar + Phenformin (first compound 0.03162 µM); 1.07 in the assay with Zosuquidar + Phenformin (first compound 0.1 µM); 0.682 with Zosuquidar + Phenformin (first compound 0.3162 µM); 0.62 with Zosuquidar + Phenformin (first compound 1 µM); 0.9 in the assay with Kobe2602 + Trametinib (first compound 0.2 µM). In addition, the relative viability with Kobe2602 + Trametinib (first compound 0.6325 µM) amounted to 0.947; in the assay with Kobe2602 + Trametinib (first compound 2 µM) it was 0.736; with Kobe2602 + Trametinib (first compound 6.325 µM), 0.742; in the assay with Kobe2602 + Trametinib (first compound 20 µM), 0.723.
In the case of NCI-H1299, the relative viability with Kobe2602 + Pictilisib (first compound 0.2 µM) was found to be 0.862; with Kobe2602 + Pictilisib (first compound 0.6325 µM), 0.957; with Kobe2602 + Pictilisib (first compound 2 µM), 0.706; in the assay with Kobe2602 + Pictilisib (first compound 6.325 µM) it was 0.71; with Kobe2602 + Pictilisib (first compound 20 µM) it was 0.916; with Cabozantinib + Alpelisib (first compound 0.02 µM) it was 1.06. In addition, the relative viability with Cabozantinib + Alpelisib (first compound 0.06325 µM) stood at 1.06; with Cabozantinib + Alpelisib (first compound 0.2 µM), 1.12; with Cabozantinib + Alpelisib (first compound 0.6325 µM) it was 1; in the assay with Cabozantinib + Alpelisib (first compound 2 µM), 1.12.
For NCI-H1563, the relative viability with Zosuquidar + Phenformin (first compound 0.01 µM) is 0.671; in the assay with Zosuquidar + Phenformin (first compound 0.03162 µM), 0.681; in the assay with Zosuquidar + Phenformin (first compound 0.1 µM), 0.595; in the assay with Zosuquidar + Phenformin (first compound 0.3162 µM) it was 0.666; in the assay with Zosuquidar + Phenformin (first compound 1 µM), 0.683; with Kobe2602 + Pictilisib (first compound 0.2 µM), 0.648. For the same cell line, the relative viability with Kobe2602 + Pictilisib (first compound 0.6325 µM) is 0.697; with Kobe2602 + Pictilisib (first compound 2 µM), 0.616; with Kobe2602 + Pictilisib (first compound 6.325 µM), 0.684; in the assay with Kobe2602 + Pictilisib (first compound 20 µM), 0.653; with Cabozantinib + Alpelisib (first compound 0.02 µM), 0.931; in the assay with Cabozantinib + Alpelisib (first compound 0.06325 µM) it was 0.916. Moreover, the relative viability with Cabozantinib + Alpelisib (first compound 0.2 µM) worked out at 0.912; in the assay with Cabozantinib + Alpelisib (first compound 0.6325 µM) it was 0.864; with Cabozantinib + Alpelisib (first compound 2 µM) it was 0.806.
Consider NCI-H1623, for which the relative viability came to 0.622 with Zosuquidar + Phenformin (first compound 0.01 µM); 0.662 with Zosuquidar + Phenformin (first compound 0.03162 µM); 0.537 in the assay with Zosuquidar + Phenformin (first compound 0.1 µM); 0.613 with Zosuquidar + Phenformin (first compound 0.3162 µM); 0.576 in the assay with Zosuquidar + Phenformin (first compound 1 µM).
In the case of NCI-H1648, the relative viability came out at 0.474 with Kobe2602 + Trametinib (first compound 0.2 µM); 0.488 with Kobe2602 + Trametinib (first compound 0.6325 µM); 0.465 in the assay with Kobe2602 + Trametinib (first compound 2 µM); 0.457 with Kobe2602 + Trametinib (first compound 6.325 µM); 0.408 with Kobe2602 + Trametinib (first compound 20 µM).
For NCI-H1650, the relative viability came out at 0.391 in the assay with Zosuquidar + Phenformin (first compound 0.01 µM); 0.321 with Zosuquidar + Phenformin (first compound 0.03162 µM); 0.383 with Zosuquidar + Phenformin (first compound 0.1 µM); 0.443 in the assay with Zosuquidar + Phenformin (first compound 0.3162 µM); 0.353 with Zosuquidar + Phenformin (first compound 1 µM); 0.554 with Kobe2602 + Pictilisib (first compound 0.2 µM). The relative viability worked out at 0.806 with Kobe2602 + Pictilisib (first compound 0.6325 µM); 0.635 with Kobe2602 + Pictilisib (first compound 2 µM); 0.658 in the assay with Kobe2602 + Pictilisib (first compound 6.325 µM); 0.597 with Kobe2602 + Pictilisib (first compound 20 µM); 0.724 in the assay with Kobe2602 + Trametinib (first compound 0.2 µM); 0.525 with Kobe2602 + Trametinib (first compound 0.6325 µM). The relative viability with Kobe2602 + Trametinib (first compound 2 µM) worked out at 0.59; with Kobe2602 + Trametinib (first compound 6.325 µM) it was 0.536; in the assay with Kobe2602 + Trametinib (first compound 20 µM) it was 0.586.
Regarding NCI-H1703, the relative viability with Kobe2602 + Pictilisib (first compound 0.2 µM) is 0.26; with Kobe2602 + Pictilisib (first compound 0.6325 µM), 0.245; with Kobe2602 + Pictilisib (first compound 2 µM) it was 0.225; with Kobe2602 + Pictilisib (first compound 6.325 µM), 0.263; with Kobe2602 + Pictilisib (first compound 20 µM), 0.229; in the assay with Cabozantinib + Alpelisib (first compound 0.02 µM) it was 0.265. For the same cell line, the relative viability worked out at 0.182 with Cabozantinib + Alpelisib (first compound 0.06325 µM), 0.223 with Cabozantinib + Alpelisib (first compound 0.2 µM), 0.23 with Cabozantinib + Alpelisib (first compound 0.6325 µM) and 0.151 with Cabozantinib + Alpelisib (first compound 2 µM).
Turning to NCI-H2342, the relative viability stood at 0.581 with Zosuquidar + Phenformin (first compound 0.01 µM); 0.558 with Zosuquidar + Phenformin (first compound 0.03162 µM); 0.49 with Zosuquidar + Phenformin (first compound 0.1 µM); 0.581 in the assay with Zosuquidar + Phenformin (first compound 0.3162 µM); 0.623 in the assay with Zosuquidar + Phenformin (first compound 1 µM); 0.741 with Kobe2602 + Trametinib (first compound 0.2 µM). For the same cell line, the relative viability with Kobe2602 + Trametinib (first compound 0.6325 µM) was 0.84; in the assay with Kobe2602 + Trametinib (first compound 2 µM), 0.794; with Kobe2602 + Trametinib (first compound 6.325 µM), 0.68; in the assay with Kobe2602 + Trametinib (first compound 20 µM) it was 0.84.
Take SW 900: the relative viability was 0.597 with Zosuquidar + Phenformin (first compound 0.01 µM); 0.578 with Zosuquidar + Phenformin (first compound 0.03162 µM); 0.618 with Zosuquidar + Phenformin (first compound 0.1 µM); 0.738 with Zosuquidar + Phenformin (first compound 0.3162 µM); 0.557 with Zosuquidar + Phenformin (first compound 1 µM); 0.959 with Kobe2602 + Trametinib (first compound 0.2 µM). Moreover, the relative viability in the assay with Kobe2602 + Trametinib (first compound 0.6325 µM) is 0.745; with Kobe2602 + Trametinib (first compound 2 µM), 0.807; with Kobe2602 + Trametinib (first compound 6.325 µM), 0.677; in the assay with Kobe2602 + Trametinib (first compound 20 µM), 0.548.
